Experimental data taken from patent US9789116B2, “Compositions and methods of modulating short-chain dehydrogenase activity” (CASE WESTERN RESERVE UNIVERSITY, priority 2013, dated 2017).

Legend:
[1] = system: 15-PGDH-luciferase fusion reporter in V9m, LS174T and V503 cells; test: 15-PGDH-luciferase fusion gene reporter induction in colon cancer cell lines; format: cell-based
[2] = system: 15-PGDH mRNA; test: 15-PGDH mRNA levels in colon cancer cell lines by real-time PCR; format: cell-based
Source text: In these studies parental cell lines (not containing the 15-PGDH-luciferase reporter) are employed.

[3] = system: A549 cells; test: PGE2 levels in medium of IL1-beta stimulated A549 cells; format: cell-based; conditions: IL1-beta 23 hours, compound added for the last 5 hours
[4] = system: A549 cells; test: Cellular toxicity on A549 cells by CellTiter-Glo; format: cell-based; conditions: 24 hours, concentrations of up to 10 μM
Method: FIGS. 38(A-C) show assays of cellular toxicity on A549 cells at 24 hours of 15-PGDH inhibitors as assayed by CellTiter-Glo measurement.

[5] = system: lethally irradiated CD45.1 mice; test: Competitive bone marrow transplant, CD45.2 chimerism; format: in vivo, mouse
Method: On day 3 mice were sacrificed, marrow flushed and mixed at a 1:1 ratio with vehicle treated CD45.1 marrow. 2 million whole BM cells were injected into the tail vein of lethally irradiated CD45.1 mice and percent chimerism measured via flow cytometry at weeks 8, 12, 16.

[6] = system: C57BL/6J mice irradiated with 11Gy; test: Survival of irradiated mice receiving marrow allograft (Example 6); format: in vivo, mouse; conditions: cohort of 3
Source text: The experimental design is depicted in FIG. 50.
Under the conditions of the mouse colony during this study, control mice receiving 100,000-500,000 cells are all dead between days 4-13 of study. […] Such activity would be of particular utility in settings, such as transplantation with umbilical cord stem cells, in which donor cell numbers are limited.

[7] = system: FVB male mice; test: Dextran sodium sulfate (DSS) induced colitis; format: in vivo, mouse
[8] = system: bone marrow SKL cells and stromal cells; test: Gene expression in bone marrow SKL and CD45(-) stromal cells of treated mice; format: in vivo, mouse
Method: 2 hours following the last dose bone marrow is harvested and sorted into SKL marked cells that are hematopoietic stem cell enriched and into CD45 (−) cells that are bone marrow stroma cells. RNA was extracted and gene expression determined relative to levels in mice injected with vehicle control.

SMILES: CCCC[S+]([O-])c1sc2nc(-c3cccs3)cc(-c3ccccc3)c2c1N (centres unmarked) [SW033291, 2-(butylsulfinyl)-4-phenyl-6-(thiophen-2-yl)thieno[2,3-b]pyridin-3-amine]
- exposure needed for maximal reporter induction ([1]; 24 hours, three cell line backgrounds): 80 to 160 nM
- luciferase activity of 15-PGDH luciferase fusion cells ([1]; V9m, LS174T, V503, various concentrations): increase luciferase activity
- 15-PGDH mRNA levels ([2]; V503 cells): slight increase in 15-PGDH mRNA
- 15-PGDH mRNA levels ([2]; treated colon cancer cell lines, real-time PCR): do not in general alter 15-PGDH mRNA levels
- 15-PGDH activity in cells as reflected in PGE2 levels in medium [3]: clear inhibition of 15-PGDH activity in the cells
- effect on CellTitre-Glo levels [4]: No effect
- percent blood chimerism of CD45.2 marked cells ([5]; donor 5 mg/kg IP daily for 3 doses, weeks 12 and 16): significantly increased
- contribution to B and T cell populations ([5]; week 16): significant increase in contribution to B and T cell populations
- Number of mice surviving ([6]; 1 × 10^5 cells, Day 1): 3
- Number of mice surviving ([6]; 1 × 10^5 cells, Day 2): 3
- Number of mice surviving ([6]; 1 × 10^5 cells, Day 3): 3
- Number of mice surviving ([6]; 1 × 10^5 cells, Day 4): 2
- Number of mice surviving ([6]; 1 × 10^5 cells, Day 5): 1
- Number of mice surviving ([6]; 1 × 10^5 cells, Day 6): 0
- Number of mice surviving ([6]; 2 × 10^5 cells, Day 1): 3
- Number of mice surviving ([6]; 2 × 10^5 cells, Day 2): 3
- Number of mice surviving ([6]; 2 × 10^5 cells, Day 3): 3
- Number of mice surviving ([6]; 2 × 10^5 cells, Day 4): 3
- Number of mice surviving ([6]; 2 × 10^5 cells, Day 5): 3
- Number of mice surviving ([6]; 2 × 10^5 cells, Day 6): 2
- Number of mice surviving ([6]; 2 × 10^5 cells, Day 7): 2
- Number of mice surviving ([6]; 2 × 10^5 cells, Day 8): 2
- Number of mice surviving ([6]; 2 × 10^5 cells, Day 9): 2
- Number of mice surviving ([6]; 2 × 10^5 cells, Day 10): 2
- Number of mice surviving ([6]; 2 × 10^5 cells, Day 11): 2
- Number of mice surviving ([6]; 2 × 10^5 cells, Day 12): 1
- Number of mice surviving ([6]; 2 × 10^5 cells, Day 13): 0
- Number of mice surviving ([6]; 5 × 10^5 cells, Day 1): 3
- Number of mice surviving ([6]; 5 × 10^5 cells, Day 2): 3
- Number of mice surviving ([6]; 5 × 10^5 cells, Day 3): 3
- Number of mice surviving ([6]; 5 × 10^5 cells, Day 4): 3
- Number of mice surviving ([6]; 5 × 10^5 cells, Day 5): 3
- Number of mice surviving ([6]; 5 × 10^5 cells, Day 6): 3
- Number of mice surviving ([6]; 5 × 10^5 cells, Day 7): 3
- Number of mice surviving ([6]; 5 × 10^5 cells, Day 8): 2
- Number of mice surviving ([6]; 5 × 10^5 cells, Day 9): 2
- Number of mice surviving ([6]; 5 × 10^5 cells, Day 10): 2
- Number of mice surviving ([6]; 5 × 10^5 cells, Day 11): 2
- Number of mice surviving ([6]; 5 × 10^5 cells, Day 12): 2
- Number of mice surviving ([6]; 5 × 10^5 cells, Day 13): 2
- change from baseline weight ([7]; 22 days, P=0.001): greater weight at all time points
- colon ulcer formation ([7]; colonoscopy days 8, 11, 15): prevents two-thirds of ulcer formation
- reduction of length of ulcerated mucosa versus control ([7]; day 15, P=0.045): 61%
- body weight and colon length ([7]; day 22): greater body weight and greater colon lengths
- MEICS scores ([7]; days 8, 11 and 15): significantly less colitis activity
- induction of CXCL12 [8]: greater than 4 fold
- induction of SCF [8]: greater than 4 fold
